Experimental data from ChEMBL document CHEMBL1201862, “PubChem BioAssay data set” (2004).
Active and inactive are the calls of the source.

Assays:
[1] = target: Eukaryotic translation initiation factor 4E (Mus musculus, UniProt P63073); test: blockers of eIF4G binding by eIF4E – biochemical, TR-FRET, dose response (AID 855); type: functional;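 further: potency for disrupting eIF4E binding to eIF4GI seen as loss of FRET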
[2] = target: T1, Long-chain-fatty-acid--AMP ligase FadD28 (Mycobacterium tuberculosis, UniProt P9WQ59); test: Fluorescence polarization aasay to screen for inhibitors that compete for the binding of FadD28 to a bisubstrate Measured in Biochemical System Using Plate Reader - 2147-01_Inhibitor_Dose_CherryPick_Activity.; type: functional, Mycobacterium tuberculosis H37Rv
T1 sequence (P9WQ59 whole entry): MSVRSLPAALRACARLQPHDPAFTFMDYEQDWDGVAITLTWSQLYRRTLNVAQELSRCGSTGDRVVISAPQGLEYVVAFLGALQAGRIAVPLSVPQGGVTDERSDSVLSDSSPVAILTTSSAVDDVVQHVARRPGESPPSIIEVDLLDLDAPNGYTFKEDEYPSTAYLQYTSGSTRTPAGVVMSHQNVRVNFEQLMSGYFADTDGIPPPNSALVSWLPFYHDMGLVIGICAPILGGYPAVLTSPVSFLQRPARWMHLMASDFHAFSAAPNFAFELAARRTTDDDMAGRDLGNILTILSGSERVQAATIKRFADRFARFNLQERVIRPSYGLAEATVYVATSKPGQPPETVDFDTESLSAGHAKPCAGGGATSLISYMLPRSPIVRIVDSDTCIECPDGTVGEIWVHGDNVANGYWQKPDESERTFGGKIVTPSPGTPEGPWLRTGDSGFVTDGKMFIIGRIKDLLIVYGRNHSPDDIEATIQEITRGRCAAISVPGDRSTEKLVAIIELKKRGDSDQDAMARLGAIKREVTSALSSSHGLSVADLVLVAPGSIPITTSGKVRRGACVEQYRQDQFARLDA

Cytochrome P450 3A4 = Cytochrome P450 3A4 (Homo sapiens, UniProt P08684); conditions: Potency;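 further: confirmatory qHTS run detecting inhibitors and substrates of CYP3A4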
Sequence of Cytochrome P450 3A4 (P08684 whole entry): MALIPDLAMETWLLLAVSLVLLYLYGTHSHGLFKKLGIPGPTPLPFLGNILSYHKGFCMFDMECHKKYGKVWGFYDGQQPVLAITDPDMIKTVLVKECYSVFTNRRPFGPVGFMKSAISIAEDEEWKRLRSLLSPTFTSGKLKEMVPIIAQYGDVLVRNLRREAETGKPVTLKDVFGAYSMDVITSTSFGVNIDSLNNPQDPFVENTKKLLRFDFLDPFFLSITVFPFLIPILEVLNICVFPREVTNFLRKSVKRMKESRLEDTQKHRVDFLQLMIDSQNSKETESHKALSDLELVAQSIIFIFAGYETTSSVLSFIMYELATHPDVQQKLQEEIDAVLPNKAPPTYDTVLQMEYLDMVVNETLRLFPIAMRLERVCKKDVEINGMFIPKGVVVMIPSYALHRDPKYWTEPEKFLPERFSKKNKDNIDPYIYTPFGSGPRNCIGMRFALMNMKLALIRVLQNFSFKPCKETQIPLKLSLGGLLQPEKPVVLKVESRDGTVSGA

[3] = target: T2, Endoribonuclease toxin MazF (Escherichia coli K-12, UniProt P0AE70); test: substrate-only fluorescence increase artefacts – biochemical, single-stranded RNase substrate, counter-screen for MazEF activator project, dose response (AID 588502); type: functional
T2 sequence (P0AE70 whole entry): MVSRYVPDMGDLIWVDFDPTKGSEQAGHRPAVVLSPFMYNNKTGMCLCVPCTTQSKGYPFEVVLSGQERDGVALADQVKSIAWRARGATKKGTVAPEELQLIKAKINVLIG

[4] = target: T3, Corticotropin-releasing factor receptor 2/Corticotropin-releasing factor-binding protein (Homo sapiens, UniProt P24387+Q13324); test: activators of CRF receptor 2 with binding protein – uHTS hits, confirmation (AID 602473); type: functional; conditions: read-out: EC50_Mean
T3 sequence (Q13324 whole entry): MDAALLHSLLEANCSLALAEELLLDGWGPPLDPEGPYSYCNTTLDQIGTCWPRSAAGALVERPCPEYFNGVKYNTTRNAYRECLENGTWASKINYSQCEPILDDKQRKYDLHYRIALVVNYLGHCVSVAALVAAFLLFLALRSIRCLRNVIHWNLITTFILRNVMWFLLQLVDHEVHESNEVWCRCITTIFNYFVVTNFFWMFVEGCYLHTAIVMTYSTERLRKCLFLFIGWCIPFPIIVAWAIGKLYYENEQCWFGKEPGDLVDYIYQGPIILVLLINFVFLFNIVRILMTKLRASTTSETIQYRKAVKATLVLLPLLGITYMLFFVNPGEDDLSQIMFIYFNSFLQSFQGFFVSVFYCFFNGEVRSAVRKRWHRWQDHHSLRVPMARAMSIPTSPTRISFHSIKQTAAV
T3 sequence (P24387 whole entry): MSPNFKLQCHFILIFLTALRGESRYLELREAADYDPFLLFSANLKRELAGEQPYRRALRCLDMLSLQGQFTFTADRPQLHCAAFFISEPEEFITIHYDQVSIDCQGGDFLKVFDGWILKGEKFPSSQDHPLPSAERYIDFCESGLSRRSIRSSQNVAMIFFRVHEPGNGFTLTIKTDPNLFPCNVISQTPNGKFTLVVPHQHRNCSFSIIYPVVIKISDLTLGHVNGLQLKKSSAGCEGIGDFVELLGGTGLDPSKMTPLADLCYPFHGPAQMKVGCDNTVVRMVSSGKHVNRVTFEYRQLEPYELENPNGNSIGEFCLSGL

[5] = target: T2, Endoribonuclease toxin MazF; test: activation of MazEF endoribonuclease cleavage – biochemical, fluorescence, single-stranded RNA substrate, uHTS hits, dose response (AID 588481); type: functional
[6] = Luminescence Cell-Based Dose Retest to Confirm Inhibitors of Cancer Stem Cells. [Related pubchem assays (depositor defined):AID2717, AID2721]; type: functional; conditions: Homo sapiens
Streptokinase A = target: T4, Streptokinase A (Streptococcus pyogenes serotype M1, UniProt P10520); test: viability-normalized secreted streptokinase activity reduction – plasminogen activation absorbance, OD405, dose response (AID 1914); type: functional, Streptococcus pyogenes M1 GAS;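 further: secreted streptokinase activity via plasminogen activation per viability signal from cell pellet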
T4 sequence (P10520 whole entry): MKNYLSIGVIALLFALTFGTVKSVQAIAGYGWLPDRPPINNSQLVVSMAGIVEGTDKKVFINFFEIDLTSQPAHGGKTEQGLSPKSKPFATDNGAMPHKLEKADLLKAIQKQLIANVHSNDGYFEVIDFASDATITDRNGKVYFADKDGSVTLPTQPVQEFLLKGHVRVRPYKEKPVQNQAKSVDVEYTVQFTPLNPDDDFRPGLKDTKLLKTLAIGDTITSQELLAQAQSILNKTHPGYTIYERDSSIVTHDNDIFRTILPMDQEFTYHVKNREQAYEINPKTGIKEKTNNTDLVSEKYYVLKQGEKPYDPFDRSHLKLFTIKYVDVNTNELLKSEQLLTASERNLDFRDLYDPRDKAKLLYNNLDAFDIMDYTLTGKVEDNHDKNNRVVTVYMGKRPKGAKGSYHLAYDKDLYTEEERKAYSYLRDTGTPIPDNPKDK

Streptococcus = test: GAS UMAA2166 growth inhibition – luminescence, BacTiterGlo, counter-screen for streptokinase expression inhibitor project, dose response (AID 1915); type: functional, organism-based;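 further: potency for reduction of bacterial viability or growth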
Genome polyprotein = Genome polyprotein (dengue virus type 2, UniProt P29990); test: flavivirus cap methylation enzyme inhibition – biochemical, confirmation dose response, primary screen (AID 588689); type: functional
Sequence of Genome polyprotein (P29990 2492-3391 limits assumed): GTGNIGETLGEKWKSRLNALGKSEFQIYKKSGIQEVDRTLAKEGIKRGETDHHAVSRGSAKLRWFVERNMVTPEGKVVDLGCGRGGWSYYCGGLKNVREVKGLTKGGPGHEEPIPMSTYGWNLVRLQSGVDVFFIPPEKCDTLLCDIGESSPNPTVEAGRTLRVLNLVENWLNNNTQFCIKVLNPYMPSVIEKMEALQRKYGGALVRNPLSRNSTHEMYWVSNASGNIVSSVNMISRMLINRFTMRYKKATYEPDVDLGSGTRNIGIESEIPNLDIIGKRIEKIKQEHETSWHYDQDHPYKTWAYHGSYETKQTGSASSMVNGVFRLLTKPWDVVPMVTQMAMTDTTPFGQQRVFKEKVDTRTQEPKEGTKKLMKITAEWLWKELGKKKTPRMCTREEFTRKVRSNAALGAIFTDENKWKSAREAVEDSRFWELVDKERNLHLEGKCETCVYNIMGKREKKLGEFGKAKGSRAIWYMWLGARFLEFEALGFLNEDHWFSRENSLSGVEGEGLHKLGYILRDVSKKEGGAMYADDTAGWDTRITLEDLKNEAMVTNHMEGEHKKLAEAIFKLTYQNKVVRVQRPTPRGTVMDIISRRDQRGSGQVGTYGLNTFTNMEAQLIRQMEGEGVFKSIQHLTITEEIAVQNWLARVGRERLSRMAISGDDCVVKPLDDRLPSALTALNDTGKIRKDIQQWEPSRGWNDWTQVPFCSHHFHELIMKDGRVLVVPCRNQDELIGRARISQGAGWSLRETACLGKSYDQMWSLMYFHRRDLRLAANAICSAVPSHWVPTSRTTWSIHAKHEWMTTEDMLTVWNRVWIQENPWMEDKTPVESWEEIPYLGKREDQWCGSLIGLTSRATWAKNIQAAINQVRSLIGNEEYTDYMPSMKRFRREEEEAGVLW

[7] = tested on: Streptococcus sp. 'group A'; test: Streptococcus pyogenes SK(-)GAS viability under kanamycin – luminescence, BacTiterGlo, confirmation, counter-screen for streptokinase expression inhibitor project, dose response (AID 1900); type: functional, organism-based
[8] = target: T5, Calpain-2 catalytic subunit (Sus scrofa, UniProt P43367); test: m-calpain protease blockers, concentration series – biochemical, fluorogenic peptide substrate, dose response (AID 1420); type: functional
T5 sequence (P43367 whole entry): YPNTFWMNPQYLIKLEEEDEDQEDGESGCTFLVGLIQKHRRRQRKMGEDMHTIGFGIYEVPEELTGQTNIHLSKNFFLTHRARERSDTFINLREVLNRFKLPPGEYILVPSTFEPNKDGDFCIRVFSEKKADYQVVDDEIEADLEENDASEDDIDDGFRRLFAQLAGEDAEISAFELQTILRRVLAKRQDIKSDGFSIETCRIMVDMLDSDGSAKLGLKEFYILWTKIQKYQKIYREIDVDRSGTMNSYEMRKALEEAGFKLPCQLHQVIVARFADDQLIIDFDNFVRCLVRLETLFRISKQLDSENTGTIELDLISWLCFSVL

[9] = viability of uninfected HEp-2 cells – cell-based, HTS, cytotoxicity control for RSV inhibitor project, dose response (AID 2410); type: functional; conditions: human respiratory syncytial virus
[10] = target: FAD-linked sulfhydryl oxidase ALR (Homo sapiens, UniProt P55789); test: ALR-catalysed DTT oxidation blockers – biochemical, H2O2 detection, luminescence, cherry-pick, dose response (AID 493248)
Sequence of FAD-linked sulfhydryl oxidase ALR (P55789 whole entry): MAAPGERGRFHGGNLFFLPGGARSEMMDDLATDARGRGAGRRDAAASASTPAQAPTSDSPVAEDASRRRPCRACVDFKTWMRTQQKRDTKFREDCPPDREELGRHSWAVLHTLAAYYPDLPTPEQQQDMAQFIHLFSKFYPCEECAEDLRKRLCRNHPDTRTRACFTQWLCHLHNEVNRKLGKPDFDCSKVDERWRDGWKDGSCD

[11] = microbe, parasite or virus in culture; type: functional; conditions: Mycobacterium tuberculosis
Cytochrome P450 2C9 = Cytochrome P450 2C9 (Homo sapiens, UniProt P11712)
Sequence of Cytochrome P450 2C9 (P11712 whole entry): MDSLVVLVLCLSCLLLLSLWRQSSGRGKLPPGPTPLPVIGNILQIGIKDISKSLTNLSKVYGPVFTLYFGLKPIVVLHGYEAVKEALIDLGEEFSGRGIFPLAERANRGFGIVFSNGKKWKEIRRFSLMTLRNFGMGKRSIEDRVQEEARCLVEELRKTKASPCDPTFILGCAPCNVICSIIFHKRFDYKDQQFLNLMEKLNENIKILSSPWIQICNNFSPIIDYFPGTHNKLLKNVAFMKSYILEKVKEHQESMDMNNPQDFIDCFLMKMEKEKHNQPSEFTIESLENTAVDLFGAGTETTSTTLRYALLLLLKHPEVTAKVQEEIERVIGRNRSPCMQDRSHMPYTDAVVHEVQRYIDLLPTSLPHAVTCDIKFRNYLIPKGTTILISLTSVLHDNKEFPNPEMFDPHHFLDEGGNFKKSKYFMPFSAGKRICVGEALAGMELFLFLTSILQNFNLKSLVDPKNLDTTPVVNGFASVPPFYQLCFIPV

Sequence of Eukaryotic translation initiation factor 4E (P63073 whole entry): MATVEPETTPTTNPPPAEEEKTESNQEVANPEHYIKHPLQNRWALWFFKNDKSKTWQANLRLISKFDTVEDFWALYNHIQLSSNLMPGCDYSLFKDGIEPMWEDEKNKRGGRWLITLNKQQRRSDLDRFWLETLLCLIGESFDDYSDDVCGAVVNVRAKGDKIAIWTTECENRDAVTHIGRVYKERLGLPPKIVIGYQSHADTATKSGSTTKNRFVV

With `O=C(CNC(=O)c1ccco1)N=Nc1c(O)[nH]c2ccc([N+](=O)[O-])cc12` the IC50 (cells) was 20.6 µM (active).
For `CCc1ccc(C(=O)NNC(=O)OC)cc1`, the IC50 [1] was 50 µM (inactive).
For `COc1cc(/C=C2\SC(=S)N(CC(=O)Nc3cccnc3)C2=O)cc(OC)c1OC`, the AC50 [2] was 72.2 µM (active).
For `O=C1c2cccnc2C(Nc2ccccc2)N1Cc1ccco1` (stereo unspecified), the IC50 (cells) was 15.1 µM (active).
With `NS(=O)(=O)c1ccc(NC(=O)COc2ccc(C(=O)c3ccc(F)cc3)cc2)cc1` the AC50 [2] was > 100 µM (inactive).
With `COC(=O)C1(C)C=CC2(CCCCC2)N1C(=O)c1ccccc1` (stereo unspecified) the AC50 (Cytochrome P450 3A4) was 20 µM (inconclusive).
With `CCOc1ccc(N2C(=O)NC(=O)/C(=C\c3c[nH]c4ccccc34)C2=O)cc1` the EC50 [3] was 16.3 µM (active), the EC50 [4] was 15.4 µM (active) and the EC50 [5] was > 99 µM (inactive).
For `Cc1ccc(S(=O)(=O)NCC(=O)Nc2ccc3c(c2)OCCO3)cc1`, the AC50 [2] was > 100 µM (inactive).
With `Cc1ccc(F)c(NC(=O)/C(C#N)=C(\O)c2ccc(C(C)(C)C)cc2)c1` the AC50 [6] was 1.96 µM (active), the AC50 [2] was > 100 µM (inactive) and the EC50 (Streptokinase A) was > 150 µM (not active). For the same compound, the EC50 (Streptococcus) was > 150 µM (not active), the IC50 (Genome polyprotein) was 32.6 µM (active) and the EC50 [7] was 16.7 µM (active).
With `Cc1ccccc1NC(=O)COC(=O)CCc1ccccc1` the IC50 [8] was 20.8 µM (not active).
With `O=S(=O)(c1ccccc1Cl)N1CCCC(c2nc(O)c3nnn(Cc4ccc5c(c4)OCCO5)c3n2)C1` (stereo unspecified) the IC50 (cells) was 10.1 µM (active) and the CC50 [9] was 16.6 µM (active).
With `CC1=C(C(=O)OCC(C)C)C23C(=O)c4ccccc4C2(O1)OC(N)=C3C#N` (stereo unspecified) the IC50 [8] was > 50 µM (not active).
For `COc1cc(NC2c3ncccc3C(=O)N2Cc2ccco2)cc(OC)c1OC` (stereo unspecified), the IC50 (cells) was 30.1 µM (active).
In the case of `CN1c2ccccc2C(C)(C)C12CC(c1cccc(S(=O)(=O)N3CCCC3)c1)=NO2` (stereo unspecified), the IC50 (cells) is reported as 18.3 µM (active) and the CC50 [9] is reported as 17.7 µM (active).
For `CC(C)CNS(=O)(=O)c1ccc(CCC(=O)Nc2cc(Cl)ccc2Oc2ccccc2)cc1`, the IC50 [8] was 5.08 µM (not active).
With `Cc1nn(Cc2cccc(C(=O)NC(C)c3ccc(C(C)(C)C)cc3)c2)c(C)c1[N+](=O)[O-]` (stereo unspecified) the IC50 [8] was 6.98 µM (not active).
For `COc1ccc(-c2csc(Nc3ccc(S(=O)(=O)Nc4cc(C)on4)cc3)n2)cc1`, the AC50 [10] was 12.9 µM (active) and the AC50 [2] was 67.4 µM (active).
With `CC(=O)Nc1ccc(S(=O)(=O)Nc2cccc3[nH]ncc23)cc1` the IC50 [8] was > 50 µM (not active).
For `CN1C(=O)/C(=C/c2ccccc2Cl)Sc2ccc(C(=O)NCc3cccnc3)cc21`, the IC50 [8] was 5.27 µM (not active), the EC50 (Streptokinase A) was > 150 µM (not active) and the CC50 [11] was > 40 µM (active). The EC50 (Streptococcus) was 16.1 µM (active) and the EC50 [7] was 4.4 µM (active).
In the case of `COC1(C#CC2C=CC(OC(C)=O)C(COC(C)=O)O2)CCCCC1` (stereo unspecified), the AC50 (Cytochrome P450 3A4) is reported as 3.98 µM (inconclusive).
For `Cc1cccc(-n2c(=O)c3c4c(sc3n3c(=S)[nH]nc23)CCC4)c1`, the IC50 [1] was 50 µM (inactive).
In the case of `COc1cccc(NC(=O)COc2ccc(N3CC(C(=O)NCC(C)C)CC3=O)cc2)c1` (stereo unspecified), the IC50 [1] is reported as > 64 µM (inactive).
For `C/C(N)=C(/C#N)C(=O)COC(=O)CNS(=O)(=O)c1ccc2ccccc2c1`, the IC50 (cells) was 11.8 µM (active).
In the case of `CN(CCOc1ccc(C[C@H](Nc2ccccc2C(=O)c2ccccc2)C(=O)O)cc1)c1ccccn1`, the AC50 (Cytochrome P450 2C9) is reported as 31.6 µM (inconclusive) and the AC50 (Cytochrome P450 3A4) is reported as 3.16 µM (inconclusive).
For `COc1cc(O)c2c(=O)c(O)c(-c3ccc(O)c(O)c3)oc2c1` [RHAMNETIN], the AC50 (Cytochrome P450 3A4) was 39.8 µM (inconclusive).
With `C=CCc1ccc2c(c1)OCO2` [SAFROLE] the AC50 (Cytochrome P450 3A4) was 3.16 µM (inconclusive).
